# Source: patent publication US10414740B2, “Glutaminase inhibitors and method of use” (Agios Pharmaceuticals, Inc., priority 2012, dated 2019)
# Biological target: T1, glutaminase (GAC) (Homo sapiens, UniProt O94925)
# T1 sequence (O94925 55-598 isoform O94925-3 limits assumed): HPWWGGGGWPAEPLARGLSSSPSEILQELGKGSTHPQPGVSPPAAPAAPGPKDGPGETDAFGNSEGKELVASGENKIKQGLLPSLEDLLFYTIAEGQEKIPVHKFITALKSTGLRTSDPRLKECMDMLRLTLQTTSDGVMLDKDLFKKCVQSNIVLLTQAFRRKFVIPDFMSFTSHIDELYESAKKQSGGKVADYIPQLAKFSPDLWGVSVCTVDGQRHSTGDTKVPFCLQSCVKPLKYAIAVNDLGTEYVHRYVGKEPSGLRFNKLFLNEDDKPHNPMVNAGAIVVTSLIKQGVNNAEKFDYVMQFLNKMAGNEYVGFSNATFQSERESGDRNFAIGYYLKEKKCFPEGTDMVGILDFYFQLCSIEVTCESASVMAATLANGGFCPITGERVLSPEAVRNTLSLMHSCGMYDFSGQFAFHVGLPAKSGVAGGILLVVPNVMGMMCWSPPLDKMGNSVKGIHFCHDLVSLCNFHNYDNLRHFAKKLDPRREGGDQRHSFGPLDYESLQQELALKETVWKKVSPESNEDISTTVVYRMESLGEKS
# Assay: glutaminase coupled endpoint assay (Example A)
# Assay type: biochemical
# Settings: inhibition of glutaminase; IC50 tested in an assay of Example A or Example B
# Method: In this example, the enzymatic activity of glutaminase is measured through a coupled endpoint assay. […] The glutamate produced is converted to 2-OG by a kinetic excess of glutamate dehydrogenase. […] However, a kinetic excess of the third coupling enzyme, diaphorase, recycles NAD from NADH to keep the NAD concentration constant during the timecourse of the assay. Diaphorase, also supplied in kinetic excess, oxidizes NADH produced by GDH back to NAD with the concomitant reduction of rezasurin to the highly fluorescent resorufin. […] A reduction in the signal indicates inhibition of some component of the coupled enzyme system. Prospective hits are counterscreened against GDH/diaphorase alone to remove hits to the coupling enzyme system in a second assay.
# 2. […] Add 1 μl a compound in 100% DMSO 2. Add 40 μl of Enzyme Mix and incubate for 60 minute at room temperature 3. Add 10 μl of Substrate Mix to start reaction 4.
row,IC50 [nM],Compound
1,100 to 500,"O=C(CCC(=O)c1ccccc1)Nc1nnc(CCCCc2nnc(NC(=O)CCC(=O)c3ccccc3)s2)s1 [Compound 112, N,N′-(5,5′-(butane-1,4-diyl)bis(1,3,4-thiadiazole-5,2-diyl))bis(4-oxo-4-phenylbutanamide)]"
2,500 to 1000,"O=C(CCCC1CCCCC1)Nc1nnc(CCCCc2nnc(NC(=O)CCCC3CCCCC3)s2)s1 [Compound 80, N,N′-(5,5′-(butane-1,4-diyl)bis(1,3,4-thiadiazole-5,2-diyl))bis(4-cyclohexylbutanamide)]"
3,100 to 500,"CC(C(=O)Nc1nnc(CCCCc2nnc(NC(=O)C(C)c3ccc(Cl)cc3)s2)s1)c1ccc(Cl)cc1 (stereo not shown) [Compound 52, N,N′-(5,5′-(butane-1,4-diyl)bis(1,3,4-thiadiazole-5,2-diyl))bis(2-(4-chlorophenyl)propanamide)]"
4,100 to 500,"O=C(CCc1ccccc1Cl)Nc1nnc(CCCCc2nnc(NC(=O)CCc3ccccc3Cl)s2)s1 [Compound 91, N,N′-(5,5′-(butane-1,4-diyl)bis(1,3,4-thiadiazole-5,2-diyl))bis(3-(2-chlorophenyl)propanamide)]"
5,100 to 500,"O=C(Cc1ccc(O)cc1)Nc1nnc(CCCCc2nnc(NC(=O)Cc3ccc(O)cc3)s2)s1 [Compound 38, N,N′-(5,5′-(butane-1,4-diyl)bis(1,3,4-thiadiazole-5,2-diyl))bis(2-(4-hydroxyphenyl)acetamide)]"
6,< 100,"Cc1nc2ccc(C(=O)Nc3nnc(CCSCCc4nnc(NC(=O)c5ccc6nc(C)[nH]c6c5)s4)s3)cc2[nH]1 [Compound 34, N,N′-(5,5′-(2,2′-thiobis(ethane-2,1-diyl))bis(1,3,4-thiadiazole-5,2-diyl))bis(2-methyl-1H-benzo[d]imidazole-6-carboxamide)]"
7,100 to 500,"O=C(CCCc1ccccc1)Nc1nnc(CCCCc2nnc(NC(=O)CCCc3ccccc3)s2)s1 [Compound 82, N,N′-(5,5′-(butane-1,4-diyl)bis(1,3,4-thiadiazole-5,2-diyl))bis(4-phenylbutanamide)]"
8,500 to 1000,"O=C(CCc1cccnc1)Nc1nnc(CCCCc2nnc(NC(=O)CCc3cccnc3)s2)s1 [Compound 54, N,N′-(5,5′-(butane-1,4-diyl)bis(1,3,4-thiadiazole-5,2-diyl))bis(3-(pyridin-3-yl)propanamide)]"
9,1000 to 10000,O=C(Cc1ccccn1)Nc1nnc(CC/C=C/CCc2nnc(NC(=O)Cc3ccccn3)s2)s1 [Compound 25]
10,500 to 1000,"O=C(Nc1nnc(CCCCc2nnc(NC(=O)C3CCCC3)s2)s1)C1CCCC1 [Compound 95, N,N′-(5,5′-(butane-1,4-diyl)bis(1,3,4-thiadiazole-5,2-diyl))dicyclopentanecarboxamide]"
11,500 to 1000,O=C(CCc1nnc(NC(=O)Cc2ccccn2)s1)CCc1nnc(NC(=O)Cc2ccccn2)s1 [Compound 73]
12,< 100,"COc1cccc(CCC(=O)Nc2nnc(CCCCc3nnc(NC(=O)CCc4cccc(OC)c4)s3)s2)c1 [Compound 53, N,N′-(5,5′-(butane-1,4-diyl)bis(1,3,4-thiadiazole-5,2-diyl))bis(3-(3-methoxyphenyl)propanamide)]"
13,< 100,"O=C(CCCC(=O)c1ccccc1)Nc1nnc(CCCCc2nnc(NC(=O)CCCC(=O)c3ccccc3)s2)s1 [Compound 40, N,N′-(5,5′-(butane-1,4-diyl)bis(1,3,4-thiadiazole-5,2-diyl))bis(5-oxo-5-phenylpentanamide)]"
14,< 100,"COc1ccc(CC(=O)Nc2nnc(CCCCc3nnc(NC(=O)Cc4ccc(OC)cc4OC)s3)s2)c(OC)c1 [Compound 119, N,N′-(5,5′-(butane-1,4-diyl)bis(1,3,4-thiadiazole-5,2-diyl))bis(2-(2,4-dimethoxyphenyl)acetamide)]"
15,< 100,"O=C(Cc1cccnc1)Nc1nnc(CCCCc2nnc(NC(=O)Cc3cccnc3)s2)s1 [Compound 28, N,N′-(5,5′-(butane-1,4-diyl)bis(1,3,4-thiadiazole-5,2-diyl))bis(2-(pyridin-3-yl)acetamide)]"
16,< 100,"O=C(Cc1cccnc1)Nc1nnc(CCS(=O)(=O)CCc2nnc(NC(=O)Cc3cccnc3)s2)s1 [Compound 14, N,N′-(5,5′-(sulfonylbis(ethane-2,1-diyl))bis(1,3,4-thiadiazole-5,2-diyl))bis(2-(pyridin-3-yl)acetamide)]"
17,100 to 500,"O=C(Cc1cccc2ccccc12)Nc1nnc(CCCCc2nnc(NC(=O)Cc3cccc4ccccc34)s2)s1 [Compound 51, N,N′-(5,5′-(butane-1,4-diyl)bis(1,3,4-thiadiazole-5,2-diyl))bis(2-(naphthalen-1-yl)acetamide)]"

row,IC50 [nM],Compound
1,100 to 500,"O=C(CC1CCCCO1)Nc1nnc(CCS(=O)(=O)CCc2nnc(NC(=O)CC3CCCCO3)s2)s1 (stereo not shown) [Compound 33, N,N′-(5,5′-(2,2′-sulfonylbis(ethane-2,1-diyl))bis(1,3,4-thiadiazole-5,2-diyl))bis(2-(tetrahydro-2H-pyran-2-yl)acetamide)]"
2,1000 to 10000,CC(C)(Oc1ccc(Cl)cc1)C(=O)Nc1nnc(CCCCc2nnc(NC(=O)C(C)(C)Oc3ccc(Cl)cc3)s2)s1 [Compound 109]
3,< 100,"COc1ccc(CC(=O)Nc2nnc(CCCCc3nnc(NC(=O)Cc4ccc(OC)c(OC)c4)s3)s2)cc1OC [Compound 63, N,N′-(5,5′-(butane-1,4-diyl)bis(1,3,4-thiadiazole-5,2-diyl))bis(2-(3,4-dimethoxyphenyl)acetamide)]"
4,100 to 500,"O=C(CCOc1ccccc1)Nc1nnc(CCCCc2nnc(NC(=O)CCOc3ccccc3)s2)s1 [Compound 111, N,N′-(5,5′-(butane-1,4-diyl)bis(1,3,4-thiadiazole-5,2-diyl))bis(3-phenoxypropanamide)]"
5,< 100,"O=C(Cc1cccnc1)Nc1nnc(C/C=C/Cc2nnc(NC(=O)Cc3cccnc3)s2)s1 [Compound 27, (E)-N,N′-(5,5′-(but-2-ene-1,4-diyl)bis(1,3,4-thiadiazole-5,2-diyl))bis(2-(pyridin-3-yl)acetamide)]"
6,1000 to 10000,"O=C(Cc1ccccc1)Nc1nnc(CCCCCCc2nnc(NC(=O)Cc3ccccc3)s2)s1 [Compound 12, N,N′-(5,5′-(hexane-1,6-diyl)bis(1,3,4-thiadiazole-5,2-diyl))bis(2-phenylacetamide)]"
7,1000 to 10000,CC(CC(=O)Nc1nnc(CCCCc2nnc(NC(=O)CC(C)c3ccccc3)s2)s1)c1ccccc1 (stereo not shown) [Compound 110]
8,100 to 500,COc1ccccc1OCC(=O)Nc1nnc(CCCCc2nnc(NC(=O)COc3ccccc3OC)s2)s1 [Compound 74]
9,1000 to 10000,CC(C)c1ccc(OCC(=O)Nc2nnc(CCCCc3nnc(NC(=O)COc4ccc(C(C)C)cc4)s3)s2)cc1 [Compound 79]
10,100 to 500,"COc1ccc2c(c1)C(CC(=O)Nc1nnc(CCCCc3nnc(NC(=O)CC4CC(=O)c5ccc(OC)cc54)s3)s1)CC2=O (stereo not shown) [Compound 43, N,N′-(5,5′-(butane-1,4-diyl)bis(1,3,4-thiadiazole-5,2-diyl))bis(2-(6-methoxy-3-oxo-2,3-dihydro-1H-inden-1-yl)acetamide)]"
11,100 to 500,"O=C(Cc1ccccc1)Nc1nnc(CC[S+]([O-])CCc2nnc(NC(=O)Cc3ccccc3)s2)s1 [Compound 7, N,N′-(5,5′-(sulfinylbis(ethane-2,1-diyl))bis(1,3,4-thiadiazole-5,2-diyl))bis(2-phenyl Acetamide)]"
12,500 to 1000,"CC(C)CC(=O)Nc1nnc(CCCCc2nnc(NC(=O)CC(C)C)s2)s1 [Compound 115, N,N′-(5,5′-(butane-1,4-diyl)bis(1,3,4-thiadiazole-5,2-diyl))bis(3-methylbutanamide)]"
13,100 to 500,"O=C(Cc1ccccn1)Nc1nnc(CC[S+]([O-])CCc2nnc(NC(=O)Cc3ccccn3)s2)s1 [Compound 17, N,N′-(5,5′-(sulfinylbis(ethane-2,1-diyl))bis(1,3,4-thiadiazole-5,2-diyl))bis(2-(pyridin-2-yl)acetamide)]"
14,100 to 500,"COc1ccc(CC(=O)Nc2nnc(CCCCc3nnc(NC(C)=O)s3)s2)cc1OC [Compound 118, N-(5-(4-(5-acetamido-1,3,4-thiadiazol-2-yl)butyl)-1,3,4-thiadiazol-2-yl)-2-(3,4-dimethoxyphenyl)acetamide]"
15,< 100,"O=C(Cc1ccccn1)Nc1nnc(CCCCc2nnc(NC(=O)Cc3ccccn3)s2)s1 [Compound 47, N,N′-(5,5′-(butane-1,4-diyl)bis(1,3,4-thiadiazole-5,2-diyl))bis(2-(pyridin-2-yl)acetamide)]"
16,100 to 500,"O=C(CC1NC(=O)NC1=O)Nc1nnc(CCCCc2nnc(NC(=O)CC3NC(=O)NC3=O)s2)s1 (stereo not shown) [Compound 89, N,N′-(5,5′-(butane-1,4-diyl)bis(1,3,4-thiadiazole-5,2-diyl))bis(2-(2,5-dioxoimidazolidin-4-yl)acetamide)]"

row,Compound,IC50 [nM]
1,"O=C(Nc1nnc(CCSCCc2nnc(NC(=O)Oc3ccccc3)s2)s1)Oc1ccccc1 [Compound 1, Diphenyl (5,5′-(thiobis(ethane-2,1-diyl))bis(1,3,4-thiadiazole-5,2-diyl))dicarbamate]",1000 to 10000
